The test system of assay [1] is U87MG cells. As to the kind of experiment: U87MG cell viability, trypan blue exclusion test. The note with it: 72 h, maximal effect at 100 μM. The class given is cell-based, human. How it is done:
The effects of compound treatment on U87MG cell viability and proliferation were evaluated by Trypan blue exclusion assays and MTS assay, respectively. U87MG cells were treated with EB148 or EB54 for 72 h. Following treatment, harvested cells were mixed with an equal volume of 0.4% trypan blue dye. For quantization of cell viability, blue and bright cells were counted, and viability was calculated as the number of living (bright) and dead (blue) cells in each well. To establish the effect of MDM2 inhibitors on cell proliferation, cells were treated for 72 h with different concentrations of each compound (0.1 nM–100 μM) for 72 h, and then MTS assay was performed according to the manufacturer's instructions.

The target in assay [2] is T1, MDM2/p53 complex (Homo sapiens, UniProt Q00987).
T1 construct: endogenous in cells; host or cells: crude lysates of U87MG human glioblastoma cells
The assay can be described thus: Association and dissociation kinetics towards MDM2 in U87MG cell lysates. The note with it: lysates treated at ten-fold IC50, diluted 1:20, 0-180 min. The class given is biochemical.
Procedure: Following incubation, cell lysates were captured on wells pre-coated with MDM2 antibody for an additional 60 min.
Dissociation was initiated by the addition of 20 volumes of cold buffer, and lysates were further incubated at 4°C for the indicated times (0-180 min). Following incubation, 200 μl of the mixture were captured on wells pre-coated with MDM2 antibody for an additional 60 min.

For assay [3], the target named is T1, MDM2/p53 complex. As to the kind of experiment: Dissociation of native MDM2/p53 complex, sandwich immuno-enzymatic assay on U87MG cell lysates. The class given is biochemical. The method, then:
Cells were washed twice in ice-cold phosphate-buffered saline, collected by centrifugation, and suspended in lysis buffer (20 mM Tris HCl, 137 mM NaCl, 10% glycerol, 1% NONIDET40, 2 mM EDTA, pH 8) containing 1% of the Protease inhibitor Cocktail (Sigma Aldrich, Milan, Italy). 96-wells were pre-coated with a mouse full-length anti-MDM2 antibody (sc-965, Santa Cruz Biotechnology, 1:50 in 0.05% Poly-L-Ornithine) overnight at room temperature. Cell lysates (20 μg in a final volume of 100 μl) were pre-incubated with DMSO (control), or different compound concentration for 10 min at room temperature, and then transferred to the pre-coated wells for 60 min. After three quick washes with PBS/Tween 0.05% to remove unbound MDM2, each well was incubated for 15 min with 1% BSA, to block nonspecific sites, and then for 1.5 h at room temperature with a rabbit primary anti-p53 antibody (sc-6243, Santa Cruz Biotechnology, 1:250). Then, wells were washed and incubated for 1 h with an anti-rabbit HRP-conjugate antibody, and washed again. […] Blanks were obtained processing cell lysates in the absence of the primary anti-p53 antibody.

Another assay deals with ERK1/2. As to the kind of experiment: ERK1/2 phosphorylation ELISA in U87MG cells. The class given is cell-based, human. The method, then: Figure 10 ERK phosphorylation and levels of ERK/MDM2 complex in U87MG cells A. U87MG cells were treated with DMSO (control), 1 μΜ EB148 or 1 μΜ EB54 for the indicated times; in some experiments, after 2 h of treatment the medium was replaced by fresh medium not containing drugs for an additional 2 h. At the end of the treatment period the levels of ERK 1/2 phosphorylation were evaluated using ELISA kits, as described in the Methods section. The data are expressed as the percentage of phosphorylated ERK1/2 versus untreated cells (control), which were set at 100%. Data are the mean values ± SEM of three independent experiments performed in triplicate. Analysis of significant differences in mean ERK/MDM2 complex levels was performed using one-way ANOVA with a Bonferroni post-test: * p< 0.05, ** p< 0.01, *** p<0.001 vs. control. […] C. U87MG cells were treated with DMSO (control), 1 μΜ EB148 or 1 μΜ EB54 for the indicated times; in some experiments, after 8 h of treatment, the medium was replaced by fresh medium not containing drugs for an additional 24 h. At the end of the treatment period, U87MG cells were collected and suspended in lysis buffer. Equal amounts of cell lysates were captured on wells pre-coated with MDM2 antibody. After extensive washing, the levels of the ERK/MDM2 complex were quantified using an antibody specific for ERKs, and subsequently an HRP-conjugated antibody and a TMB substrate kit. Data are expressed as percentage of control set to 100%, and represent the mean ± SEM of three independent experiments. The significance of the differences was determined with a one-way ANOVA with Bonferroni post-test: * p<0.05, ** p<0.01, *** p<0.001 vs. control.

Assay [4] concerns the target T2, human TSPO (Homo sapiens, UniProt P30536).
T2 construct: aliquots of U87MG cell membranes (20 μg of proteins) were incubated with [^3H]PK 11195 (1.5 nM); endogenous in cells; host or cells: U87MG human glioblastoma cell membranes
As to the kind of experiment: Equilibrium [3H]PK11195 radioligand binding assay in U87MG cell membranes. The method, then: Equilibrium radioligand binding assays were performed essentially as previously described. […] Samples were rapidly filtered under vacuum through GF/C glass fiber filters.

The next assay deals with p53 protein. As to the kind of experiment: p53 protein accumulation by western blotting. The class given is cell-based, human. How it is done: U87MG were treated with DMSO (control), EB148 or EB54 for 16 h. […] […] Glyceraldehyde-3-phosphate dehydrogenase (GAPDH) was the loading control ([…], Sigma Aldrich, Milan, Italy, 1:5000). The primary antibodies were detected using the appropriate peroxidase-conjugated secondary antibodies, which were then detected using a chemioluminescent substrate (ECL, Perkin Elmer). Densitometric analysis of the immunoreactive bands was performed using Image J Software.

The next assay deals with T3, p53/MDM2 complex (Homo sapiens, UniProt Q00987).
T3 construct: endogenous in cells; host or cells: U87MG human glioblastoma cells, treated whole and then lysed
The assay can be described thus: Levels of p53/MDM2 complex in U87MG whole cells (ELISA). The class given is cell-based. How it is done:
U87MG cells were treated with DMSO (control), EB148 or EB54 for different times. When indicated, after 8 h of incubation, cells were washed twice with fresh saline and cultured in drug-free medium for an additional 24 h. At the end of the treatment period, the cells were collected, and suspended in lysis buffer containing 1% of the Protease inhibitor Cocktail.

Assay [5] deals with T2, human TSPO. As to the kind of experiment: TSPO association/dissociation and competition kinetics with [3H]PK11195. The class given is binding. The text has this: Association and dissociation rate constants for [^3H]
For competition kinetics, the [^3H]

Assay [6] concerns U87MG cells. As to the kind of experiment: Annexin V and 7-AAD staining (apoptosis). The class given is cell-based, human. The note with it: 1 μM, 24 h. How it is done:
Dual staining with Annexin V coniugated to fluorescein-isothiocyanate (FITC) and 7-amino-actinomysin (7-AAD) was performed using the commercially available kit (Muse Annexin V and Dead Cell Kit; Merck KGaA, Darmstadt, Germany).
U87MG cells were treated with DMSO (control), EB54 or EB148 (1 μM) for 24 h. Both floating and adherent cells were collected, and incubated for 10 min at room temperature with the fluorescent reagent. After incubation, the percentages of living, apoptotic and dead cells were acquired and analyzed by MuseTM Cell Analyzer in accordance to the manufacture's guidelines.

T2 sequence (P30536 whole entry): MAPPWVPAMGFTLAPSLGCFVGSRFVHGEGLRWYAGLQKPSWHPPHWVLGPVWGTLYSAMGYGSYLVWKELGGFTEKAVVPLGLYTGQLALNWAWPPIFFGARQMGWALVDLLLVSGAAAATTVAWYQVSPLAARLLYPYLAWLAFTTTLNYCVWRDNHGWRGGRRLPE
T3 sequence (Q00987 whole entry, one chain of several): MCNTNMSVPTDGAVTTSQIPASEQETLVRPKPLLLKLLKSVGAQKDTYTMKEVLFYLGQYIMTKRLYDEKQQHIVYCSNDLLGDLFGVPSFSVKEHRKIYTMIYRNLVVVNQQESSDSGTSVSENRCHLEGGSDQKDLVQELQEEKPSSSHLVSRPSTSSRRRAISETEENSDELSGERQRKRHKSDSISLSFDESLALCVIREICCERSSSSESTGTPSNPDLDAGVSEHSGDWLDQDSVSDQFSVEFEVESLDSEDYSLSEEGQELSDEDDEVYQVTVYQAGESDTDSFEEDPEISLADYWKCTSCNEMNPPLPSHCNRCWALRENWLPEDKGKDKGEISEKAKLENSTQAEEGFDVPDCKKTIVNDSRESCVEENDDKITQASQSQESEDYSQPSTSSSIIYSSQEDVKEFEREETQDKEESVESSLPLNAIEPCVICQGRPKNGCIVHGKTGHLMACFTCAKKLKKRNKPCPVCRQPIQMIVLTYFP
T1 sequence (Q00987 whole entry, one chain of several): as above

For the compound `CCOC(=O)[C@@H](Cc1ccccc1)NC(=O)[C@H](CC(C)C)NC(=O)C(=O)c1c(-c2ccccc2)[nH]c2ccc(N=C=S)cc12` [EB148], the “total number of living cells” value in the assay with U87MG cells [1] is recorded as “reduced the total number of living cells”. In addition, the “activity in inhibiting p53-MDM2 complex after sample dilution” value on MDM2/p53 complex [2] is recorded as “maintained unchanged”. The IC50 against MDM2/p53 complex [3] came to 6.81 ± 0.79 nM. Further, the “ERK activation after cell wash-out” value in the assay on ERK1/2 (1 μM for 2 h, then drug-free medium for 2 h) is given as “continued to significantly activate”. In addition, the ERK1/2 phosphorylation entry in the assay on ERK1/2 (1 μM, up to 8 h) was “significant ERK phosphorylation”. The “effect of blocking p53 on compound-mediated ERK1/2 activation” value in the assay on ERK1/2 (pifithrin-β 1 μM 30 min, then compound 1 μM 2 h) is “completely impaired”. The compound also returned a Ki at human TSPO [4] of 199 ± 18 nM. In the assay with p53 protein (1 μM for 16 h, then wash-out of 16 h), the “p53 protein levels after wash-out” value was “maintained high p53 levels”. Further, the p53 protein levels result in the assay with p53 protein (1 μM, 16 h) was “slight but significant increase”. Besides, on p53/MDM2 complex (1 μM for 8 h, then 24 h wash-out), the “p53-MDM2 complex formation after 24 h cell wash-out” value is “significantly lower than in the control”. Moreover, the “p53-MDM2 complex in whole cells” value at p53/MDM2 complex (1 μM, 8 h) was “inhibited”. Moreover, on human TSPO [5], the off-rate constant (koff) was 8.01e-05 s⁻¹ and the kon was 5350 M⁻¹ s⁻¹. Also, the Kd on human TSPO [5] (calculated as ratio of estimated koff and kon) was 150 nM. Moreover, in the assay on U87MG cells [6], the “phosphatidylserine externalization (early and late apoptosis)” value is on record as “significant phoshpatidilserine externalization”.

These data come from PMC4884960, “Long lasting MDM2/Translocator protein modulator: a new strategy for irreversible apoptosis of human glioblastoma cells” (Oncotarget, 2016).
